Experimental data taken from patent US20080206222A1, “Preventive/Therapeutic Composition For Free Radical Disease” (priority 2004, published 2008).

What was measured:
[1] = system: Bovine aortic endothelial cells BAE2; details: 22 h, 50 μM
Description: Bovine aortic endothelial cells BAE2 were inoculated at a cell density of 8×10^4/cm^2, and after 18 hours, each of a fullerene, ascorbic acid and the fullerenes of the invention of this application of the formulation Nos. 1 to 13 shown in the above Table 1 was administered at a concentration of 50 μM which falls within the range of the level of the respective substances in the normal human blood. After 22 hours, the amounts of fullerenes and ascorbic acid present in the cells were determined by coulometry and HPLC (high-performance liquid chromatography) with ECD (electrochemical detection). The water content in the cells was measured by gas chromatography using 14C-labeled polyethylene glycol and found to be 0.598 μL/cell.

[2] = system: human fibrosarcoma cell line HT1080; test: Test for cell migration (cell haptotaxis), Boyden double chamber; format: cell-based; details: HT1080, administered at 300 μM; coulometry and HPLC with ECD
Description: A Boyden double chamber was used, in which a porous film with 8 μm pores was placed, the upper surface of the porous film was coated with Matrigel as a reconstituted basement membrane, the lower surface of the porous film was coated with fibronectin as an extracellular matrix. […] Further, the concentration of ascorbic acid present in the cells was determined by coulometry and HPLC with ECD.

[3] = Stability test in aqueous solution (HPLC residual ratio); format: physicochemical; details: 0.1% aqueous solution in purified water, room temperature
Description: A difference in the stabilities of PVP/fullerene (molecular weight of PVP: 60,000), a fullerene monoester, and salts of a fullerene monoester in an aqueous solution (a storage test at room temperature for 10 days) is shown in Table 7. […] Incidentally, the stability was evaluated by determining the residual ratio of the above substance using the HPLC method by leaving a 0.1% aqueous solution of the above substance (in purified water) at room temperature for 10 days.

[4] = system: rat coronary artery occlusion model; test: Test for comparative effect on organ failure (versus human Cu-Zn SOD); format: in vivo; details: 5 mg/kg intravenously before occlusion and once daily for 5 days; dissection after 10 days; control Ringer's solution with human Cu-Zn SOD
Description: A rat coronary artery occlusion model was subjected to systemic ischemia for 5 minutes, followed by reperfusion. When the level of free radical-dependent chemiluminescence in the peripheral blood was measured using a chemical luminescence manufactured by Showa Denko K. K. from the start of this experiment, a significant increase in the level of free radical was observed from immediately after the initiation of reperfusion. In a test group, the injectable solution of Example 2 was intravenously administered to the rat at 5 mg/kg at 15 minutes before the occlusion of the coronary artery of the rat in advance, and in a control group, a Ringer's solution supplemented with human Cu—Zn SOD was injected in the same manner as in the test group. Also after the initiation of reperfusion, the above pharmaceutical composition of the present invention was injected at the same dose once daily for 5 days, and after 10 days, dissection was carried out, and cardiac, hepatic, renal, pancreatic and cystic cell necrosis indices were determined using a 45 Ca-autoradiography/image analyzer.

With O=C1O[C@H]([C@@H](O)CO)C(O)=C1O [Ascorbic acid] the “concentration in the cells” value [1] was 60 µM, the “concentration in the cells relative to that outside the cells” value [1] was 1.2 times and the “concentration of ascorbic acid present in the cells” value [2] was 103 µM. The “Residual ratio after 10 days (%)” value [3] was 0%.
With “human Cu—Zn SOD: human Cu—Zn SOD added to Ringer's solution for the control group” the “necrosis of cardiac, hepatic, renal, pancreatic and cystic cells (45Ca-autoradiography/image analyzer)” value [4] was “delayed cell death”.
